Test results: patent EP3281644A1, “STABLE FLUORESCENT NANOVESICLES, METHOD FOR OBTAINING THEM AND USES THEREOF” (Consejo Superior De Investigaciones Científicas, priority 2016, dated 2018)

Tests used:
[1] = Photochemical decomposition quantum yield under continuous laser irradiation; type: physicochemical; conditions: free dye in EtOH; diode laser 660 nm
Protocol: Photostabilities of DiD in EtOH and of DiD-nanovesicles were analyzed by monitoring the evolution over time of absorbance of the samples under continuous laser irradiation. The data are shown in Table below and are also represented in Figure 8. Additional column in Table 1 for rows of DiD
The quantum yields of photoreaction were calculated following the method proposed by Belfield et al. "Photophysical and photochemical properties of 5,7-di-methoxycoumarin under one- and two-photon excitation". J. Phys. Org. Chem. 16, 69-78 (2003).
Sample photostability under continuous-wave excitation was determined by measuring the photochemical decomposition quantum yield. […]
Quantum yields of photochemical decomposition were measured in ethanol (for DID) and water (FI, NDB and all nanovesicle samples) using absorption and fluorescence methods, where the number of bleached molecules is determined by a kinetic decrease in absorbance or fluorescence intensity under the assumption that fluorescence and absorbance of the photoproducts are negligible in the spectral region of dye fluorescence and main absorption band. Fluorescence method was used to estimate the photostability of dilute samples (with maximum absorbance < 0.1), while photochemical decomposition quantum yields of concentrated solutions (with maximum absorbance ≈ 1) were determined by absorption method. […]

[2] = reference standard; in methanol; cited from earlier work

Row | Compound | Photodecomposition QY*10^-5 [1] | QY, Φ [2] [%]
1 | CCCCCCCCCCCCCCCCCCN1C(=CC=CC=CC2=[N+](CCCCCCCCCCCCCCCCCC)c3ccccc3C2(C)C)C(C)(C)c2ccccc21.[O-][Cl+3]([O-])([O-])[O-] [DiD EtOH, 1,1'-dioctadecyl-3,3,3',3'-tetramethyl-indodicarbocyanine perchlorate] | <0,008 *10^-5 | –
2 | cresyl violet | – | 56
